Results from the NIST ThermoML archive (doi:10.1021/je900387e).

Test: xn = mol fraction of the nth substance listed
Settings: Liquid, Pycnometric method

CCCCBr [1-bromobutane] + O=C=O
Settings	mass density [kg/m3]
322.7 K, 11600 kPa, x1 = 0.0683	826
322.7 K, 11640 kPa, x1 = 0.1495	987
322.7 K, 11680 kPa, x1 = 0.0989	884
322.7 K, 11910 kPa, x1 = 0.0461	797
322.7 K, 11910 kPa, x1 = 0.0683	832
322.7 K, 11990 kPa, x1 = 0.1495	990
322.7 K, 12130 kPa, x1 = 0.0989	890
322.7 K, 12220 kPa, x1 = 0.0683	838
322.7 K, 12290 kPa, x1 = 0.1495	994
322.7 K, 12570 kPa, x1 = 0.0683	845
322.7 K, 12610 kPa, x1 = 0.0989	897
322.7 K, 12640 kPa, x1 = 0.0461	814
322.7 K, 12660 kPa, x1 = 0.1495	997
322.7 K, 12900 kPa, x1 = 0.0683	850
322.7 K, 13010 kPa, x1 = 0.1495	1000
322.7 K, 13110 kPa, x1 = 0.0989	903
322.7 K, 13210 kPa, x1 = 0.0461	826
322.7 K, 13280 kPa, x1 = 0.0683	857
322.7 K, 13490 kPa, x1 = 0.1495	1004
322.7 K, 13640 kPa, x1 = 0.0989	910
322.7 K, 13730 kPa, x1 = 0.0683	864
322.7 K, 13820 kPa, x1 = 0.1495	1008
322.7 K, 13830 kPa, x1 = 0.0461	838
322.7 K, 13960 kPa, x1 = 0.0683	867
322.7 K, 14210 kPa, x1 = 0.0989	916
322.7 K, 14230 kPa, x1 = 0.1495	1011
322.7 K, 14620 kPa, x1 = 0.1495	1015
322.7 K, 14880 kPa, x1 = 0.0989	924
322.7 K, 15120 kPa, x1 = 0.1495	1018
322.7 K, 15160 kPa, x1 = 0.0989	926
327.6 K, 8820 kPa, x1 = 0.1495	922
327.6 K, 8950 kPa, x1 = 0.1495	924
327.6 K, 9080 kPa, x1 = 0.0245	359
327.6 K, 9100 kPa, x1 = 0.0989	786
327.6 K, 9110 kPa, x1 = 0.0245	362
327.6 K, 9140 kPa, x1 = 0.1495	927
327.6 K, 9170 kPa, x1 = 0.0245	369
327.6 K, 9220 kPa, x1 = 0.0245	375
327.6 K, 9230 kPa, x1 = 0.0989	791
327.6 K, 9270 kPa, x1 = 0.0245	382
327.6 K, 9330 kPa, x1 = 0.0245	389
327.6 K, 9340 kPa, x1 = 0.1495	930
327.6 K, 9350 kPa, x1 = 0.0683	677
327.6 K, 9360 kPa, x1 = 0.0461	555
327.6 K, 9380 kPa, x1 = 0.0245	396
327.6 K, 9380 kPa, x1 = 0.0461	559
327.6 K, 9380 kPa, x1 = 0.0683	680
327.6 K, 9390 kPa, x1 = 0.0461	563
327.6 K, 9390 kPa, x1 = 0.0989	796
327.6 K, 9420 kPa, x1 = 0.0245	401
327.6 K, 9430 kPa, x1 = 0.0461	569
327.6 K, 9460 kPa, x1 = 0.0245	406
327.6 K, 9470 kPa, x1 = 0.0461	577
327.6 K, 9470 kPa, x1 = 0.0683	688
327.6 K, 9490 kPa, x1 = 0.0461	584
327.6 K, 9520 kPa, x1 = 0.0245	414
327.6 K, 9520 kPa, x1 = 0.1495	933
327.6 K, 9540 kPa, x1 = 0.0989	801
327.6 K, 9560 kPa, x1 = 0.0461	591
327.6 K, 9570 kPa, x1 = 0.0683	696
327.6 K, 9580 kPa, x1 = 0.0245	423
327.6 K, 9650 kPa, x1 = 0.0245	431
327.6 K, 9650 kPa, x1 = 0.0461	599
327.6 K, 9700 kPa, x1 = 0.0683	705
327.6 K, 9700 kPa, x1 = 0.0989	806
327.6 K, 9710 kPa, x1 = 0.0461	606
327.6 K, 9710 kPa, x1 = 0.1495	936
327.6 K, 9720 kPa, x1 = 0.0245	440
327.6 K, 9760 kPa, x1 = 0.0461	615
327.6 K, 9790 kPa, x1 = 0.0245	449
327.6 K, 9830 kPa, x1 = 0.0461	623
327.6 K, 9830 kPa, x1 = 0.0683	714
327.6 K, 9860 kPa, x1 = 0.0245	459
327.6 K, 9890 kPa, x1 = 0.0989	811
327.6 K, 9890 kPa, x1 = 0.1495	939
327.6 K, 9920 kPa, x1 = 0.0461	631
327.6 K, 9950 kPa, x1 = 0.0245	469
327.6 K, 10000 kPa, x1 = 0.0683	723
327.6 K, 10010 kPa, x1 = 0.0461	640
327.6 K, 10030 kPa, x1 = 0.0245	480
327.6 K, 10050 kPa, x1 = 0.0245	484
327.6 K, 10060 kPa, x1 = 0.0245	486
327.6 K, 10070 kPa, x1 = 0.1495	942
327.6 K, 10080 kPa, x1 = 0.0989	817
327.6 K, 10120 kPa, x1 = 0.0461	649
327.6 K, 10190 kPa, x1 = 0.0683	733
327.6 K, 10240 kPa, x1 = 0.0461	658
327.6 K, 10290 kPa, x1 = 0.0989	822
327.6 K, 10310 kPa, x1 = 0.1495	945
327.6 K, 10360 kPa, x1 = 0.0461	668
327.6 K, 10380 kPa, x1 = 0.0683	742
327.6 K, 10500 kPa, x1 = 0.0461	678
327.6 K, 10510 kPa, x1 = 0.0989	828
327.6 K, 10560 kPa, x1 = 0.1495	949
327.6 K, 10630 kPa, x1 = 0.0683	752
327.6 K, 10660 kPa, x1 = 0.0461	688
327.6 K, 10730 kPa, x1 = 0.0989	833
327.6 K, 10780 kPa, x1 = 0.1495	951
327.6 K, 10840 kPa, x1 = 0.0461	698
327.6 K, 10920 kPa, x1 = 0.0683	762
327.6 K, 10990 kPa, x1 = 0.0461	706
327.6 K, 11000 kPa, x1 = 0.1495	954
327.6 K, 11060 kPa, x1 = 0.0989	839
327.6 K, 11240 kPa, x1 = 0.0683	773
327.6 K, 11280 kPa, x1 = 0.1495	958
327.6 K, 11310 kPa, x1 = 0.0989	845
327.6 K, 11520 kPa, x1 = 0.1495	961
327.6 K, 11590 kPa, x1 = 0.0683	783
327.6 K, 11620 kPa, x1 = 0.0989	851
327.6 K, 11790 kPa, x1 = 0.1495	964
327.6 K, 11960 kPa, x1 = 0.0989	857
327.6 K, 11990 kPa, x1 = 0.0683	794
327.6 K, 12050 kPa, x1 = 0.1495	967
327.6 K, 12310 kPa, x1 = 0.0989	862
327.6 K, 12370 kPa, x1 = 0.1495	970
327.6 K, 12460 kPa, x1 = 0.0683	805
327.6 K, 12670 kPa, x1 = 0.1495	974
327.6 K, 12710 kPa, x1 = 0.0989	869
327.6 K, 13000 kPa, x1 = 0.1495	977
327.6 K, 13040 kPa, x1 = 0.0683	817
327.6 K, 13110 kPa, x1 = 0.0989	875
327.6 K, 13350 kPa, x1 = 0.1495	981
327.6 K, 13520 kPa, x1 = 0.0989	880
327.6 K, 13650 kPa, x1 = 0.0683	829
327.6 K, 13660 kPa, x1 = 0.1495	984
327.6 K, 13960 kPa, x1 = 0.1495	987
327.6 K, 13980 kPa, x1 = 0.0989	887
327.6 K, 13990 kPa, x1 = 0.0683	835
327.6 K, 14320 kPa, x1 = 0.1495	990
327.6 K, 14470 kPa, x1 = 0.0989	893
327.6 K, 14690 kPa, x1 = 0.1495	993
327.6 K, 14740 kPa, x1 = 0.0683	848
327.6 K, 14960 kPa, x1 = 0.0683	851
327.6 K, 15000 kPa, x1 = 0.0989	900
327.6 K, 15090 kPa, x1 = 0.1495	997
332.4 K, 9170 kPa, x1 = 0.0245	317
332.4 K, 9200 kPa, x1 = 0.0245	319
332.4 K, 9250 kPa, x1 = 0.0245	323
332.4 K, 9300 kPa, x1 = 0.0245	328
332.4 K, 9350 kPa, x1 = 0.0245	332
332.4 K, 9350 kPa, x1 = 0.1495	896
332.4 K, 9400 kPa, x1 = 0.0245	336
332.4 K, 9440 kPa, x1 = 0.0245	340
332.4 K, 9490 kPa, x1 = 0.0245	345
332.4 K, 9540 kPa, x1 = 0.0245	349
332.4 K, 9580 kPa, x1 = 0.0245	354
332.4 K, 9580 kPa, x1 = 0.1495	900
332.4 K, 9640 kPa, x1 = 0.0245	359
332.4 K, 9670 kPa, x1 = 0.0989	750
332.4 K, 9690 kPa, x1 = 0.0245	364
332.4 K, 9740 kPa, x1 = 0.0245	369
332.4 K, 9760 kPa, x1 = 0.1495	903
332.4 K, 9780 kPa, x1 = 0.0989	755
332.4 K, 9790 kPa, x1 = 0.0245	375
332.4 K, 9810 kPa, x1 = 0.0461	512
332.4 K, 9830 kPa, x1 = 0.0461	516
332.4 K, 9840 kPa, x1 = 0.0245	380
332.4 K, 9840 kPa, x1 = 0.0683	622
332.4 K, 9870 kPa, x1 = 0.0683	625
332.4 K, 9890 kPa, x1 = 0.0461	521
332.4 K, 9890 kPa, x1 = 0.0989	759
332.4 K, 9890 kPa, x1 = 0.1495	906
332.4 K, 9900 kPa, x1 = 0.0245	386
332.4 K, 9900 kPa, x1 = 0.0683	629
332.4 K, 9930 kPa, x1 = 0.0461	527
332.4 K, 9950 kPa, x1 = 0.0245	392
332.4 K, 9960 kPa, x1 = 0.0683	636
332.4 K, 9970 kPa, x1 = 0.0461	533
332.4 K, 10000 kPa, x1 = 0.0683	640
332.4 K, 10000 kPa, x1 = 0.0989	764
332.4 K, 10010 kPa, x1 = 0.0245	398
332.4 K, 10020 kPa, x1 = 0.0245	399
332.4 K, 10020 kPa, x1 = 0.0461	539
332.4 K, 10040 kPa, x1 = 0.1495	909
332.4 K, 10060 kPa, x1 = 0.0461	546
332.4 K, 10070 kPa, x1 = 0.0683	647
332.4 K, 10110 kPa, x1 = 0.0989	769
332.4 K, 10120 kPa, x1 = 0.0461	552
332.4 K, 10150 kPa, x1 = 0.0683	654
332.4 K, 10180 kPa, x1 = 0.0461	559
332.4 K, 10190 kPa, x1 = 0.1495	912
332.4 K, 10240 kPa, x1 = 0.0461	566
332.4 K, 10240 kPa, x1 = 0.0683	662
332.4 K, 10240 kPa, x1 = 0.0989	774
332.4 K, 10300 kPa, x1 = 0.0461	573
332.4 K, 10340 kPa, x1 = 0.0683	670
332.4 K, 10370 kPa, x1 = 0.0461	580
332.4 K, 10370 kPa, x1 = 0.0989	778
